Data on 34 compounds can be found in patent US5773424A, “Treatment of toxoplasmosis” (priority 1994, dated 1998).

Where two headings read alike, the source gives them in different places.

The experiment deals with T. gondii adenosine kinase (Toxoplasma gondii, UniProt Q9TVW2). The experiment can be described thus: biochemical. The conditions noted are these: for inhibition at 1000 µM: read-out: Inhibition of T. gondii adenosine kinase; for Decrease in binding to T. gondii adenosine kinase: relative to reference compound adenosine. Here is the method: Preparation of cytosol extracts. For the structure activity relationships studies, approximately 5×10^8 T. gondii were suspended in 1.2 ml of 50 mM N-2-hydroxyethylpiperazine-N'-2-ethanesulfonic acid (HEPES)-Cl (pH 8.0)/1 mM dithiothreitol and homogenized for 30 seconds at setting 10, using a Brinnmann Instruments Polytron homogenizer fitted with a PTA 7K1 probe. The homogenate was then centrifuged at approximately 116,000 g for 1 hour at 5° and the supernatant (cytosol extract) collected and used as the enzyme source. Fresh cytosol extracts were prepared for each experiment.
Sequence of T. gondii adenosine kinase (Q9TVW2 whole entry): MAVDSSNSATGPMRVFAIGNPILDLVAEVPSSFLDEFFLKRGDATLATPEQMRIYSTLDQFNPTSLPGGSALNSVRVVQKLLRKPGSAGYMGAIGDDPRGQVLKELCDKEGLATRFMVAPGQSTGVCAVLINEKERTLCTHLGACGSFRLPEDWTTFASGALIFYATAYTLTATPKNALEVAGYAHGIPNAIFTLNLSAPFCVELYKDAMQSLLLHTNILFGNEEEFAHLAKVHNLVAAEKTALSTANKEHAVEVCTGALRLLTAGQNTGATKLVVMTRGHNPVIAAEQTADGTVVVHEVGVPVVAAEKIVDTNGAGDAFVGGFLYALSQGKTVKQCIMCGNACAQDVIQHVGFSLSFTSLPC
Adenosine kinase assay. T. gondii adenosine kinase activity was measured by following the formation of [^14 C]AMP from [^14 C]adenosine and ATP. […] Therefore, the standard reaction mixture contained 50 mM HEPES-Cl (pH 8.0), 1 mM dithiothreitol, 5 μM [8-^14 C]adenosine (45 Ci/mol), 0.5 mM ATP, 0.5 mM MgCl2, 25 μM (+)-EHNA or 100 μM (±)-EHNA,10-30 μl of cytosol extract (approximately 3-10 μg of protein), and either 0, 0.1, 0.25, 0.5 or 1.0 mM of the compound to be tested, in a final volume of 150 μl.
Reactions were started by the addition of [8-^14 C]adenosine, incubated at 37° for 10 minutes and terminated by placing the reaction tubes in a boiling water bath for 2 minutes. Precipitated proteins were removed by centrifugation in a microcentrifuge (approximately 13,000 g) for 5 minutes, and a 15 μl aliquot of the resulting supernatant was mixed with 5 μl of a solution containing 10 mM each of AMP and adenosine. This mixture was then spotted on silica gel thin layer chromatography plates which were developed with a mixture of chloroform/methanol/acetic acid (16:3:1). […] The substrate and product spots (which accounted for all of the radioactivity on the plates) were identified by UV quenching, cut out, and the radioactivity quantitated by liquid scintillation counting in 20 ml of Scintilene, using a Packard 460 scintillation counter. […] Enzyme velocity was calculated by multiplying the fraction of AMP formed from adenosine times the amount of adenosine in the assay, and dividing by the incubation time.
Determination and significance of AppKi values. AppKi values were used to determine the relative degree of binding of compounds to adenosine kinase as compared to adenosine. AppKi values were estimated from Dixon plots of the data (1/.nu. versus [I]), using a computer program with least squares fitting according to the general principles of Cleland (Cleland, W W, The statistical analysis of enzyme kinetic data. Adv. Enzymol. 29:1-32, 1967). The program was written by Dr. Sungman Cha (Brown University, Providence, R.I.) and modified to fit IBM BASIC by Dr. Fardos N. M. Naguib. […] It should be noted, however, that the type of inhibition (i.e., competitive, noncompetitive, or uncompetitive) produced by the compounds was not determined, nor were the compounds evaluated as substrates for T. gondii adenosine kinase.

Where [1] appears, read: AppKi for inhibition of T. gondii adenosine kinase, 5 μM adenosine, ± range, at least two estimations.

For orientation: inhibition means the relative decrease from the control value, in per cent. Regarding `CO[C@H]1[C@@H](O)[C@H](n2cnc3c(N)ncnc32)O[C@@H]1CO` [Compound 91, 3'-O-Methyladenosine], the inhibition at 1000 µM is under 10%. Further, the “Effect on binding to T. gondii adenosine kinase, in words” value (relative to adenosine) was “abolishes”.
Turning to `Nc1ncnc2c1ncn2[C@@H]1O[C@H](CO)[C@H](O)[C@H]1O` [Compound 92, Adenine xyloside], the Ki amounted to 1400 µM and the “Decrease in binding to T. gondii adenosine kinase” value (“Decrease in binding” for short) was found to be 200 fold.
For `C[C@H]1O[C@@H](n2cnc3c(N)ncnc32)[C@H](O)[C@@H]1O` [Compound 93, 5'-Deoxyadenosine], in that order: 40 ± 3 µM and 5.7 fold.
In turn, `Nc1ncnc2c1ncn2[C@@H]1O[C@H](CCl)[C@@H](O)[C@H]1O` [Compound 95, 5'-Chloro-5'-deoxyadenosine] had a Ki of 210 ± 10 µM.
Take `Nc1ncnc2c1ncn2[C@@H]1O[C@H](CI)[C@@H](O)[C@H]1O` [Compound 96, 5'-Iodo-5'-deoxyadenosine]: under setting [1], the Ki is 230 ± 10 µM.
With `Nc1ncnc2c1ncn2[C@@H]1O[C@H](COS(=O)(=O)O)[C@@H](O)[C@H]1O` [Compound 97, 5'-Sufonyl adenosine (adenosine 5'-monosulfate)], the Ki under setting [1] was 210 ± 60 µM.
Consider `CSC[C@H]1O[C@@H](n2cnc3c(N)ncnc32)[C@H](O)[C@@H]1O` [Compound 98, 5'-Methylthio-5'-deoxyadenosine], for which the Ki came out at 530 ± 230 µM.
As for `Nc1ncnc2c1ncn2[C@@H]1O[C@H](C(=O)O)[C@@H](O)[C@H]1O` [Compound 99, adenosine 5'-Carboxylic acid (5'-Carboxyladenosine)], the Ki came to 1100 µM.
The compound `Nc1ncnc2c1ncn2[C@@H]1O[C@H](COC(=O)CCC(=O)O)[C@@H](O)[C@H]1O` [Compound 100, 5'-Succinyladenosine (adenosine 5'-succinate)] yielded a Ki of 920 ± 600 µM.
On the same count and under the same terms, next, `CC(C)CC[C@H]1O[C@@H](n2cnc3c(N)ncnc32)[C@H](O)[C@@H]1O` [Compound 101, 5'-Isobutyl-5'-deoxyadenosine]: 410 ± 90 µM.
As to `CNC(=O)[C@H]1O[C@@H](n2cnc3c(N)ncnc32)[C@H](O)[C@@H]1O` [Compound 102, 5'-N-(Methyl)carboxamidoadenosine], the inhibition at 1000 µM was under 10%.
Still for that read-out and setting: next, `CCNC(=O)[C@H]1O[C@@H](n2cnc3c(N)ncnc32)[C@H](O)[C@@H]1O` [Compound 103, 5'-N-(Ethyl)carboxamidoadenosine]: under 10%.
For `Nc1ncnc2c1ncn2[C@@H]1O[C@H](C(=O)NC2CC2)[C@@H](O)[C@H]1O` [Compound 104, 5'-N-(Cyclopropyl)carboxamidoadenosine], under setting [1], the Ki is 1100 µM.
On the same count and under the same terms, next, `Nc1ncnc2c1ncn2[C@@H]1O[C@H](COC(=O)c2ccc(S(=O)(=O)F)cc2)[C@@H](O)[C@H]1O` [Compound 105, 5'-(p-Fluorosulfonylbenzoyl)adenosine]: 340 ± 40 µM.
In the case of `Nc1ncnc2c1ncn2[C@H]1CC[C@@H](CO)O1` [Compound 106, 2',3'-Dideoxyadenosine], the Ki was 5500 µM.
On to `Nc1ncnc2c1ncn2C1O[C@H](CO)[C@H](O)[C@@H]1O` (some centres unmarked) [Compound 107, Adenine lyxoside], for which the “Decrease in binding” value stood at 190 fold. For the same compound, for the setting “read-out: AppKi for inhibition of T. gondii adenosine kinase, 5 μM adenosine, ± range, at least two estimations”, the Ki was 1300 µM.
`COc1ccc(C2OC3C(CO)OC(n4cnc5c(N)ncnc54)C3O2)cc1` (centres unmarked) [Compound 108, 2',3'-O-p-Anisylidene adenosine]: the Ki amounted to 1400 µM.
Consider `CC(=O)O[C@@H]1[C@H](OC(C)=O)[C@@H](CO)O[C@H]1n1cnc2c(N)ncnc21` [Compound 109, 2',3'-Di-O-acetyladenosine], for which the inhibition at 1000 µM was under 10%.
Same read-out and setting: with `CC(=O)OC[C@H]1O[C@@H](n2cnc3c(N)ncnc32)[C@H](O)[C@@H]1OC(C)=O` [Compound 110, 3',5'-Di-O-acetyladenosine] the figure was under 10%.
Turning to `Nc1ncnc2c1ncn2[C@@H]1O[C@](F)(COS(N)(=O)=O)[C@@H](O)[C@H]1O` [Compound 111, 4'-Flouro-5'-O-sulfamoyladenosine (nucleocidin)], the Ki under setting [1] was 850 ± 220 µM.
Turning to `Nc1ncnc2c1ncn2[C@@H]1C=C(CO)[C@@H](O)[C@H]1O` [Compound 114, Neplanocin A], the Ki amounted to 37 ± 10 µM and the “Decrease in binding” value came out at 5.3 fold.
In the same order, the values of `Nc1ncnc2nc[nH]c12` [Compound 115, Adenine] are 6500 µM and 930 fold.
`Cn1cnc2c(ncn2[C@H]2C[C@H](O)[C@@H](CO)O2)c1=N` [Compound 116, 1-Methyl-2'-deoxyadenosine] came in with a Ki of 8000 µM.
Turning to `CNc1ncnc2c1ncn2[C@H]1C[C@H](O)[C@@H](CO)O1` [Compound 117, N^6 -Methyl-2'-deoxyadenosine], the inhibition at 1000 µM is under 10%.
The compound `O=C(Nc1ncnc2c1ncn2[C@H]1C[C@H](O)[C@@H](CO)O1)c1ccccc1` [Compound 118, N^6 -Benzoyl-2'-deoxyadenosine] registered a Ki of 590 ± 20 µM.
For `CN(C)c1ncnc2c1ncn2[C@@H]1O[C@H](CO)[C@@H](N)[C@H]1O` [Compound 119, N^6 -Dimethyl-3'-amino-3'-deoxyadenosine], the Ki under setting [1] is 540 ± 80 µM.
With `NC(=O)c1cn([C@@H]2O[C@H](CO)C[C@H]2O)c2ncnc(N)c12` [Compound 120, 7-Deaza-7-carboxamido-3'-deoxyadenosine (3'-Deoxysangivamycin)], under setting [1], the Ki is 110 ± 20 µM. Besides, the “Reduction of binding to T. gondii adenosine kinase” value (relative to sangivamycin) is listed as 2 fold.
For the compound `Nc1nc2c(ncn2[C@@H]2O[C@H](CO)[C@@H](O)[C@H]2F)c(=O)[nH]1` [Compound 121, 2'-Fluoro-2'-deoxyguanosine], the inhibition at 1000 µM was under 10%.
Take `CC1(C)O[C@@H]2[C@H](O1)[C@@H](CO)O[C@H]2n1cnc2c(=S)[nH]cnc21` [Compound 122, 2',3'-O-Isopropylidene-6-mercaptopurine riboside]: the Ki came to 3900 µM.
The same measure, in the same setting: next, `NC(=O)c1ncn([C@@H]2O[C@H](CO)[C@@H](O)[C@H]2O)c1N` [Compound 123, 5'-Aminoimidazole-4-carboxamide riboside]: 2400 µM; `COc1ccc(C[C@H](N)C(=O)N[C@H]2[C@@H](O)[C@H](n3cnc4c(N(C)C)ncnc43)O[C@@H]2CO)cc1` [Compound 124, 3'(α-Amino-p-methoxyhydrocinnamamido)-3'-deoxy-N^6-dimethyladenosine (Puromycin)]: 1300 µM.
`Nc1ncnc(NC2C=C(CO)C(O)C2O)c1[N+](=O)[O-]` (centres unmarked) [Compound 125, 4-(3-Hydroxymethyl-4,5-dihydroxy-2-cyclopenten-1-yl)amino-5-nitro-6-aminopyrimidine]: the inhibition at 1000 µM was under 10%.
Still for that read-out and setting: next, `O=c1[nH]cnc(NC2C=C(CO)C(O)C2O)c1[N+](=O)[O-]` (centres unmarked) [Compound 126, 4-(3-Hydroxymethyl-4,5-dihydroxy-2-cyclopenten-1-yl)amino-1,6-dihydro-5-nitro-6-oxopyrimidine]: under 10%.
`Nc1nc(NC2C=C(CO)C(O)C2O)c([N+](=O)[O-])c(=O)[nH]1` (centres unmarked) [Compound 127, 2-Amino-4-(3-hydroxymethyl-4,5-dihydroxy-2-cyclopenten-1-yl)aminto-1,6-dihydro-5-nitro-6-oxopyrimidine] gave a Ki of 940 ± 110 µM.
